Test results as given in ChEMBL document CHEMBL3407488, “Synthesis and L-type calcium channel blocking activity of new chiral oxadiazolothiazinones” (Eur J Med Chem, 2015).

Key:
[1] = Antagonist activity at Cav1.2b in K+-depolarized guinea pig ileum longitudinal smooth muscle assessed as inhibition of calcium-induced contraction; type: tissue-based; details: Cavia porcellus
Right cardiac atrium [2] = assay: Negative chronotropic activity in guinea pig […] atrium assessed as decrease in atrial rate on spontaneous beating at 5 x 10^-6 M relative to control; type: functional, Cavia porcellus; set-up: scale not given: the % may be the effect or the level left
Left cardiac atrium [3] = assay: Negative ionotropic activity in guinea pig left atrium assessed as decrease in developed tension driven at 1 Hz at 5 x 10^-6 M relative to control; type: functional, Cavia porcellus; set-up: scale not given: the % may be the effect or the level left
Cavia porcellus [4] = organism: Cavia porcellus; assay: Antagonist activity at Cav1.2a in K+-depolarized guinea pig aortic strips assessed as inhibition of calcium-induced contraction at 5 x 10^-5 M relative to control; type: tissue-based; set-up: scale not given: the % may be the effect or the level left; details: Aorta
Cav1.2b [5] = assay: Antagonist activity at Cav1.2b in K+-depolarized guinea pig ileum longitudinal smooth muscle assessed as inhibition of calcium-induced contraction at 5 x 10^-5 M relative to control; type: tissue-based, Cavia porcellus; details: read-out: Activity
Right cardiac atrium [6] = assay: Negative chronotropic activity in guinea pig […] atrium assessed as decrease in atrial rate on spontaneous beating at 5 x 10^-8 M relative to control; type: functional, Cavia porcellus; set-up: scale not given: the % may be the effect or the level left
Left cardiac atrium [7] = assay: Negative ionotropic activity in guinea pig left atrium assessed as decrease in developed tension driven at 1 Hz at 5 x 10^-7 M relative to control; type: functional, Cavia porcellus; set-up: scale not given: the % may be the effect or the level left
Cavia porcellus [8] = organism: Cavia porcellus; assay: Antagonist activity at Cav1.2a in K+-depolarized guinea pig aortic strips assessed as inhibition of calcium-induced contraction at 5 x 10^-8 M relative to control; type: tissue-based; set-up: scale not given: the % may be the effect or the level left; details: Aorta
Left cardiac atrium [9] = assay: Negative ionotropic activity in guinea pig left atrium assessed as decrease in developed tension driven at 1 Hz; type: functional, tissue-based; details: Cavia porcellus
Cav1.2b [10] = assay: Antagonist activity at Cav1.2b in K+-depolarized guinea pig ileum longitudinal smooth muscle assessed as inhibition of calcium-induced contraction at 10^-4 M relative to control; type: tissue-based, Cavia porcellus; details: read-out: Activity
Cavia porcellus [11] = organism: Cavia porcellus; assay: Antagonist activity at Cav1.2a in K+-depolarized guinea pig aortic strips assessed as inhibition of calcium-induced contraction at 10^-4 M relative to control; type: tissue-based; set-up: scale not given: the % may be the effect or the level left; details: Aorta
Left cardiac atrium [12] = assay: Negative ionotropic activity in guinea pig left atrium assessed as decrease in developed tension driven at 1 Hz at 10^-6 M relative to control; type: functional, Cavia porcellus; set-up: scale not given: the % may be the effect or the level left
Left cardiac atrium [13] = assay: Ratio of diltiazem EC50 to compound EC50 for negative ionotropic activity in guinea pig left atrium assessed as decrease in developed tension driven at 1 Hz; type: functional, Cavia porcellus
Right cardiac atrium [14] = assay: Negative chronotropic activity in guinea pig […] atrium assessed as decrease in atrial rate on spontaneous beating at 10^-4 M relative to control; type: functional, Cavia porcellus; set-up: scale not given: the % may be the effect or the level left
Right cardiac atrium [15] = assay: Negative chronotropic activity in guinea pig […] atrium assessed as decrease in atrial rate on spontaneous beating at 10^-5 M relative to control; type: functional, Cavia porcellus; set-up: scale not given: the % may be the effect or the level left
Right cardiac atrium [16] = assay: Negative chronotropic activity in guinea pig […] atrium assessed as decrease in atrial rate on spontaneous beating at 5 x 10^-5 M relative to control; type: functional, Cavia porcellus; set-up: scale not given: the % may be the effect or the level left
[17] = Selectivity ratio of IC50 for Cav1.2b in K+-depolarized guinea pig ileum longitudinal smooth muscle to IC50 for Cav1.2a in K+-depolarized guinea pig aortic strips; set-up: species or system Cavia porcellus, Muscle tissue
[18] = Antagonist activity at Cav1.2a in K+-depolarized guinea pig aortic strips assessed as inhibition of calcium-induced contraction; type: tissue-based; details: Cavia porcellus, Aorta
Cav1.2b [19] = assay: Antagonist activity at Cav1.2b in K+-depolarized guinea pig ileum longitudinal smooth muscle assessed as inhibition of calcium-induced contraction at 10^-6 M relative to control; type: tissue-based, Cavia porcellus; details: read-out: Activity
[20] = Selectivity ratio of IC50 for Cav1.2a in K+-depolarized guinea pig aortic strips to IC50 for Cav1.2b in K+-depolarized guinea pig ileum longitudinal smooth muscle; set-up: species or system Cavia porcellus, Muscle tissue
Right cardiac atrium [21] = assay: Negative chronotropic activity in guinea pig […] atrium assessed as decrease in atrial rate on spontaneous beating at 10^-6 M relative to control; type: functional, Cavia porcellus; set-up: scale not given: the % may be the effect or the level left
Right cardiac atrium [22] = assay: Negative chronotropic activity in guinea pig […] atrium assessed as decrease in atrial rate on spontaneous beating; type: functional; details: Cavia porcellus
Left cardiac atrium [23] = assay: Negative ionotropic activity in guinea pig left atrium assessed as decrease in developed tension driven at 1 Hz at 10^-5 M relative to control; type: functional, Cavia porcellus; set-up: scale not given: the % may be the effect or the level left
[24] = Selectivity ratio of IC50 for Cav1.2b in K+-depolarized guinea pig ileum longitudinal smooth muscle to EC50 for negative ionotropic activity in guinea pig left atrium; set-up: species or system Cavia porcellus, Muscle tissue
Right cardiac atrium [25] = assay: Negative chronotropic activity in guinea pig […] atrium assessed as decrease in atrial rate on spontaneous beating at 5 x 10^-7 M relative to control; type: functional, Cavia porcellus; set-up: scale not given: the % may be the effect or the level left
Cav1.2b [26] = assay: Antagonist activity at Cav1.2b in K+-depolarized guinea pig ileum longitudinal smooth muscle assessed as inhibition of calcium-induced contraction at 5 x 10^-6 M relative to control; type: tissue-based, Cavia porcellus; details: read-out: Activity

| EC50 (Left cardiac atrium [9]) [nM] | SMILES | IC50 [1] [µM] | inhibition at 100 µM (Cav1.2b [10]) [%] | Activity (Cavia porcellus [11]) [%] | Activity (Left cardiac atrium [12]) [%] | Activity (Right cardiac atrium [14]) [%] | also measured |
| --- | --- | --- | --- | --- | --- | --- | --- |
|  | CCO[C@@]1(c2ccc(Br)cc2)Sc2ccccc2-n2c1noc2=O | 5.19 |  |  |  |  | Activity (Right cardiac atrium [2]): 10%; Activity (Left cardiac atrium [3]): 25%; Activity (Cavia porcellus [4]): 2%; inhibition at 50 µM (Cav1.2b [5]): 60% |
| 11 | O=c1onc2n1-c1ccccc1S[C@@]2(OCC(F)(F)F)c1ccc(Br)cc1 |  | 47 |  |  |  | Activity (Right cardiac atrium [6]): 25%; Activity (Left cardiac atrium [7]): 52%; Activity (Cavia porcellus [8]): 28% |
| 40 | CCOC1(c2ccc(Br)cc2)SC=C(C)n2c1noc2=O (racemic) |  | 3 | 19 | 78 | 5 | Ratio EC50 (Left cardiac atrium [13]): 20 |
| 70 | CCO[C@]1(c2ccc(Br)cc2)SC=C(C)n2c1noc2=O |  |  | 11 | 77 |  | Activity (Right cardiac atrium [15]): 16% |
| 34 | CC1=CS[C@@](OCC(F)(F)F)(c2ccc(Br)cc2)c2noc(=O)n21 | 19 | 85 | 12 | 82 | 16 |  |
| 22 | CC1=CSC(OCC(F)(F)F)(c2ccc(Br)cc2)c2noc(=O)n21 (racemic) | 25.9 | 73 | 28 |  |  | Activity (Left cardiac atrium [3]): 76%; Activity (Right cardiac atrium [15]): 4%; Ratio EC50 (Left cardiac atrium [13]): 36 |
|  | CCO[C@@]1(c2ccc(Br)cc2)SC=C(C)n2c1noc2=O |  |  | 7 | 58 |  | Activity (Right cardiac atrium [16]): 15% |
| 13 | CCOC1(c2ccc(Br)cc2)Sc2ccccc2-n2c1noc2=O (racemic) | 8.32 | 87 | 4 | 81 | 7 | Ratio IC50 [17]: 640; IC50 [18]: 13 nM |
| 790 | COc1ccc([C@@H]2Sc3ccccc3N(CCN(C)C)C(=O)[C@@H]2OC(C)=O)cc1 [DILTIAZEM] | 0.11 |  | 88 |  |  | inhibition at 1 µM (Cav1.2b [19]): 98%; IC50 [18]: 2600 nM; Ratio IC50 [20]: 24; Activity (Right cardiac atrium [21]): 94%; EC30 (Right cardiac atrium [22]): 0.07 µM; Activity (Left cardiac atrium [23]): 78% |
| 6 | O=c1onc2n1-c1ccccc1SC2(OCC(F)(F)F)c1ccc(Br)cc1 (racemic) | 11.8 | 54 | 21 | 75 | 7 | Selectivity ratio [24]: 1965 |
| 9.8 | O=c1onc2n1-c1ccccc1S[C@]2(OCC(F)(F)F)c1ccc(Br)cc1 | 4.58 | 54 | 1 | 77 |  | Activity (Right cardiac atrium [15]): 24% |
| 26 | CC1=CS[C@](OCC(F)(F)F)(c2ccc(Br)cc2)c2noc(=O)n21 | 12.2 | 98 | 9 |  |  | Activity (Left cardiac atrium [3]): 82%; Activity (Right cardiac atrium [16]): 40% |
| 9.3 | CCO[C@]1(c2ccc(Br)cc2)Sc2ccccc2-n2c1noc2=O | 0.02 |  |  |  |  | Activity (Left cardiac atrium [7]): 64%; Activity (Cavia porcellus [4]): 8%; Activity (Right cardiac atrium [25]): 20%; inhibition at 5 µM (Cav1.2b [26]): 78% |
